Strand notation (5' to 3'): a small letter for the sugar, then the base; units joined by * are phosphorothioate-linked, units joined directly phosphodiester-linked; [ ] holds rarer units or linkages, { } end groups; capitals alone tell only the bases. [PN] = cyclic guanidine phosphoramidate internucleoside linkage; [ms] = mesyl phosphoramidate linkage; e = 2'-O-(2-methoxyethyl) (MOE); k = constrained ethyl (cEt); [5mC] = 5-methylcytosine; d = 2'-deoxy (DNA)
Experiments:
human APOE RNA [1] = assay: Duration of action study in APOE C57BL/6NTac-Apoeem7250 knock-in mice (Example 16); type: in vivo; conditions: 300 μg ICV
Description: Modified oligonucleotides described above were tested in the APOE C57BL/6NTac-Apoeem7250 knock-in mouse model described above.
APOE C57BL/6NTac-Apoeem7250 knock-in mice were divided into groups of 2-4 mice each. Each mouse received a single intracerebroventricular (ICV) bolus of 300 μg of modified oligonucleotide. A group of 2-4 mice received a single ICV bolus with PBS as a negative control.
Mice were sacrificed at various timepoints as indicated in the table below and RNA was extracted from cortical brain tissue and spinal cord for quantitative real-time RT-PCR analysis of RNA expression of APOE using primer probe set RTS3073 (described herein above). APOE RNA levels were normalized to mouse Ppia. Mouse Ppia was amplified using primer probe set m_cyclo24 (described herein above). Results are presented as percent human APOE RNA relative to the amount of human APOE RNA in PBS treated animals, (% control). Each experiment is identified in separate tables below.

human APOE RNA [2] = assay: Activity in APOE C57BL/6NTac-Apoeem7250 knock-in mice, single ICV bolus, 16 weeks (Example 12); type: in vivo; conditions: single ICV bolus 300 μg, 16 weeks post treatment, normalized to mouse Ppia
Procedure, shortened: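 Knock-in mice (3-4 per group) received one ICV bolus of 300 μg oligonucleotide, PBS as control. After 16 weeks, human APOE RNA in cortex and spinal cord measured by RT-qPCR, normalized to mouse Ppia, and reported as % of PBS control.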

human APOE RNA [3] = assay: Activity in APOE C57BL/6NTac-Apoeem7250 knock-in mice, single ICV bolus, 8 weeks (Example 11); type: in vivo; conditions: single ICV bolus 300 μg, 8 weeks post treatment, normalized to mouse Ppia
Procedure, shortened: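 Human APOE knock-in C57BL/6NTac mice given one ICV bolus of 300 μg oligonucleotide; PBS-dosed group as control. At 8 weeks, cortex and spinal cord RNA measured by qRT-PCR (human probe RTS3073), normalized to mouse Ppia, expressed as % of PBS control.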

human APOE RNA [4] = assay: Activity in APOE C57BL/6NTac-Apoeem7250 knock-in mice, single ICV bolus, 4 weeks (Example 10); type: in vivo; conditions: single ICV bolus 300 μg, 4 weeks post treatment, normalized to mouse Ppia
Procedure, shortened: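 Knock-in mice (2–4 per group) received one 300 μg ICV bolus of oligonucleotide or PBS. After four weeks, human APOE RNA in cortex and spinal cord measured by RT-qPCR (primer probe set RTS3073), normalized to mouse Ppia, expressed as % of PBS controls.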

human APOE RNA [5] = assay: Activity in APOE C57BL/6NTac-Apoeem7250 knock-in mice, single ICV bolus, 20 weeks (Example 13); type: in vivo; conditions: single ICV bolus 300 μg, 20 weeks post treatment, normalized to mouse Ppia
Procedure, shortened: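 Knock-in mice (n=4) given a single ICV bolus of 300 μg oligonucleotide, PBS as control. After 20 weeks, human APOE RNA in cortex and spinal cord measured by RT-qPCR, normalized to mouse Ppia, expressed as % of PBS-treated animals.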

human APOE RNA [6] = assay: Dose-dependent inhibition of human APOE RNA in HepG2 cells, electroporation, 50,000 cells per well, RT-PCR normalized to GAPDH (Example 4, Tables 8-10); type: cell-based; conditions: HepG2 cells, electroporation, Table 8; for APOE RNA (% UTC) 5 nM / APOE RNA (% UTC) 13 nM / APOE RNA (% UTC) 33 nM / APOE RNA (% UTC) 82 nM / APOE RNA (% UTC) 205 nM / APOE RNA (% UTC) 512 nM / IC50: 24-hour treatment; for APOE RNA (% UTC) 1,280 nM: 24-hour treatment, 1,280 nM; for APOE RNA (% UTC) 3,200 nM: 24-hour treatment, 3,200 nM; for APOE RNA (% UTC) 8,000 nM: 24-hour treatment, 8,000 nM; for APOE RNA (% UTC) 20,000 nM: 24-hour treatment, 20,000 nM; for IC50: reduction of human APOE RNA
Procedure, shortened: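 HepG2 cells, 50,000 per well, electroporated with modified oligonucleotide at various concentrations. APOE RNA quantified by RT-PCR with human primer probe set RTS3073, normalized to GAPDH. Values are percent APOE RNA relative to untreated control cells.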

Substance	APOE RNA (% control) Cortex (human APOE RNA [1]; 14 days post-dose) [% control]	APOE RNA (% control) Cortex (human APOE RNA [1]; 112 days post-dose) [% control]	APOE RNA (% control) Spinal Cord (human APOE RNA [1]; 14 days post-dose) [% control]	APOE RNA (% control) Spinal Cord (human APOE RNA [1]; 112 days post-dose) [% control]	APOE RNA (% control) Cortex (human APOE RNA [2]) [% control]	APOE RNA (% control) Spinal Cord (human APOE RNA [2]) [% control]	APOE RNA (% control) Cortex (human APOE RNA [3]) [% control]	APOE RNA (% control) Spinal Cord (human APOE RNA [3]) [% control]	APOE RNA (% control) Cortex (human APOE RNA [4]) [% control]	APOE RNA (% control) Spinal Cord (human APOE RNA [4]) [% control]	APOE RNA (% control) Cortex (human APOE RNA [5]) [% control]	APOE RNA (% control) Spinal Cord (human APOE RNA [5]) [% control]	APOE RNA (% UTC) 5 nM (human APOE RNA [6]) [% UTC]	APOE RNA (% UTC) 13 nM (human APOE RNA [6]) [% UTC]	APOE RNA (% UTC) 33 nM (human APOE RNA [6]) [% UTC]	APOE RNA (% UTC) 82 nM (human APOE RNA [6]) [% UTC]	APOE RNA (% UTC) 205 nM (human APOE RNA [6]) [% UTC]	APOE RNA (% UTC) 512 nM (human APOE RNA [6]) [% UTC]	APOE RNA (% UTC) 1,280 nM (human APOE RNA [6]) [% UTC]	APOE RNA (% UTC) 3,200 nM (human APOE RNA [6]) [% UTC]	further results
1721303: 6-10-4 MOE gapmer TTGGTGAATCTTTATTAAAC, linkages s[pn][pn][pn]oossssssssssoss (eT*eT[PN]eG[PN]eG[PN]eTeGdA*dA*dT*d[5mC]*dT*dT*dT*dA*dT*dT*eAeA*eA*e[5mC]) [compound 1721303]	36	75	32	40	–	–	–	–	–	–	–	–	–	–	–	–	–	–	–	–	–
1721304: 6-10-4 MOE gapmer TTGGTGAATCTTTATTAAAC, linkages s[pn][pn][pn]oosssssszzssoss (eT*eT[PN]eG[PN]eG[PN]eTeGdA*dA*dT*d[5mC]*dT*dT*dT[ms]dA[ms]dT*dT*eAeA*eA*e[5mC]) [compound 1721304]	46	67	45	42	–	–	–	–	–	–	–	–	–	–	–	–	–	–	–	–	–
1721305: 6-10-4 MOE gapmer TTGGTGAATCTTTATTAAAC, linkages s[pn][pn][pn]oossssssssss[pn]ss (eT*eT[PN]eG[PN]eG[PN]eTeGdA*dA*dT*d[5mC]*dT*dT*dT*dA*dT*dT*eA[PN]eA*eA*e[5mC]) [compound 1721305]	52	81	37	40	–	–	–	–	–	–	–	–	–	–	–	–	–	–	–	–	–
1721306: 6-10-4 MOE gapmer TTGGTGAATCTTTATTAAAC, linkages s[pn][pn][pn]oosssssszzss[n]ss (as printed) (sugars from the 5' end e6 d10 e4, all C 5-methyl, backbone not given here; further chemistry not fully specified) [compound 1721306]	58	89	63	60	–	–	–	–	–	–	–	–	–	–	–	–	–	–	–	–	–
1721307: 6-10-4 MOE gapmer CTTGGTGAATCTTTATTAAA, linkages s[pn][pn][pn]oossssssssssoss (e[5mC]*eT[PN]eT[PN]eG[PN]eGeTdG*dA*dA*dT*d[5mC]*dT*dT*dT*dA*dT*eTeA*eA*eA) [compound 1721307]	38	73	31	34	–	–	–	–	–	–	–	–	–	–	–	–	–	–	–	–	–
1721308: 6-10-4 MOE gapmer CTTGGTGAATCTTTATTAAA, linkages s[pn][pn][pn]oossssssszzsoss (e[5mC]*eT[PN]eT[PN]eG[PN]eGeTdG*dA*dA*dT*d[5mC]*dT*dT*dT[ms]dA[ms]dT*eTeA*eA*eA) [compound 1721308]	48	85	45	42	–	–	–	–	–	–	–	–	–	–	–	–	–	–	–	–	–
1778127: modified oligonucleotide complementary to human APOE RNA (eA*e[5mC]eTeTkGkG*dT*dG[ms]dA[ms]dA*dT*d[5mC]*dT*dT*dT*dA[ms]kTeT[ms]eA[ms]eA; antisense) [compound 1778127]	–	–	–	–	48	25	28	14	32	53	57	43	98	88	85	82	55	31	30	16	APOE RNA (% UTC) 8,000 nM (human APOE RNA [6]): 14 % UTC; APOE RNA (% UTC) 20,000 nM (human APOE RNA [6]): 4 % UTC; IC50 (human APOE RNA [6]): 310 nM
1778129: modified oligonucleotide complementary to human APOE RNA (eA*e[5mC]eTeTeG*kG*dT*dG[ms]dA[ms]dA*dT*d[5mC]*dT*dT*dT*dA[ms]kT*kT*eA*eA; antisense) [compound 1778129]	–	–	–	–	34	14	19	9	25	47	52	24	124	105	110	77	60	44	29	9	APOE RNA (% UTC) 8,000 nM (human APOE RNA [6]): 14 % UTC; APOE RNA (% UTC) 20,000 nM (human APOE RNA [6]): 2 % UTC; IC50 (human APOE RNA [6]): 410 nM
1785601: modified oligonucleotide complementary to human APOE RNA (k[5mC]*kT*kT*dG[ms]dG[ms]dT[ms]dG*dA[ms]dA[ms]dT*d[5mC]*dT*dT*dT*dA[ms]dT*kT*kA*dA[ms]kA; antisense) [compound 1785601]	–	–	–	–	39	21	28	211	33	40	43	31	111	115	101	75	63	36	25	15	APOE RNA (% UTC) 8,000 nM (human APOE RNA [6]): 16 % UTC; APOE RNA (% UTC) 20,000 nM (human APOE RNA [6]): 10 % UTC; IC50 (human APOE RNA [6]): 380 nM
1785604: modified oligonucleotide complementary to human APOE RNA (k[5mC]*dT[ms]dT[ms]kG*dG[ms]kT*dG[ms]dA[ms]dA*dT*d[5mC]*dT*dT*dT*dA*dT*kT*kA*dA[ms]kA; antisense) [compound 1785604]	–	–	–	–	41	27	28	35	39	55	55	47	92	108	89	86	69	47	44	47	APOE RNA (% UTC) 8,000 nM (human APOE RNA [6]): 13 % UTC; APOE RNA (% UTC) 20,000 nM (human APOE RNA [6]): 7 % UTC; IC50 (human APOE RNA [6]): 870 nM

Source: patent US20250353873A1, “COMPOUNDS AND METHODS FOR MODULATING APOE EXPRESSION” (Ionis Pharmaceuticals, Inc., priority 2024, published 2025)
